Assay results reported in the supplement of paper PMC10307832.

Assays:
Assay in all cases: relative viability (nuclei count vs DMSO), 5 days (fraction); higher = more cells survive
Ibrutinib + Crizotinib = compound: C=CC(=O)N1CCC[C@@H](n2nc(-c3ccc(Oc4ccccc4)cc3)c3c(N)ncnc32)C1 [Ibrutinib] + C[C@@H](Oc1cc(-c2cnn(C3CCNCC3)c2)cnc1N)c1c(Cl)ccc(F)c1Cl [Crizotinib] (partner 1 µM)
Procedure, shortened: (§1)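 A single step with final 0.05% Triton X-100, 1% formaldehyde and 1 ug/ml Hoechst fixed the cells and stained nuclei 5 days after treatment. Lung cancer cell lines in 1536-well plates had been treated by pin tool the day after seeding with one drug alone or a fixed anchor-drug dose plus five library-drug doses (not always all listed) in √10 steps, and nuclei were counted on 4× images. Relative viability is the ratio of nuclei in treated wells to nuclei in vehicle wells, taken as the median of duplicate plates.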

PAC-1 + Bortezomib = compound: C=CCc1cccc(/C=N/NC(=O)CN2CCN(Cc3ccccc3)CC2)c1O [PAC-1] + CC(C)C[C@H](NC(=O)[C@H](Cc1ccccc1)NC(=O)c1cnccn1)B(O)O [Bortezomib] (partner 0.002 µM)
Procedure, shortened: as §1

PAC-1 + Vorinostat = compound: C=CCc1cccc(/C=N/NC(=O)CN2CCN(Cc3ccccc3)CC2)c1O [PAC-1] + O=C(CCCCCCC(=O)Nc1ccccc1)NO [Vorinostat] (partner 1 µM)
Procedure, shortened: as §1

Ibrutinib + Luminespib = compound: C=CC(=O)N1CCC[C@@H](n2nc(-c3ccc(Oc4ccccc4)cc3)c3c(N)ncnc32)C1 [Ibrutinib] + CCNC(=O)c1noc(-c2cc(C(C)C)c(O)cc2O)c1-c1ccc(CN2CCOCC2)cc1 [Luminespib] (partner 0.01 µM)
Procedure, shortened: as §1

Cell Line | relative viability (Ibrutinib + Crizotinib; first compound 0.005 µM) | relative viability (Ibrutinib + Crizotinib; first compound 0.01581 µM) | relative viability (Ibrutinib + Crizotinib; first compound 0.05 µM) | relative viability (Ibrutinib + Crizotinib; first compound 0.1581 µM) | relative viability (Ibrutinib + Crizotinib; first compound 0.5 µM) | relative viability (PAC-1 + Bortezomib; first compound 0.02 µM) | relative viability (PAC-1 + Bortezomib; first compound 0.06325 µM) | relative viability (PAC-1 + Bortezomib; first compound 0.2 µM) | relative viability (PAC-1 + Bortezomib; first compound 2 µM) | relative viability (PAC-1 + Vorinostat; first compound 0.02 µM) | relative viability (PAC-1 + Vorinostat; first compound 0.06325 µM) | relative viability (PAC-1 + Vorinostat; first compound 0.2 µM) | relative viability (PAC-1 + Vorinostat; first compound 2 µM) | relative viability (Ibrutinib + Luminespib; first compound 0.01581 µM) | relative viability (Ibrutinib + Luminespib; first compound 0.05 µM) | relative viability (Ibrutinib + Luminespib; first compound 0.1581 µM) | relative viability (Ibrutinib + Luminespib; first compound 0.5 µM) | relative viability (Ibrutinib + Luminespib; first compound 0.005 µM)
NCI-H2347 | 0.679 | 0.684 | 0.739 | 0.592 | 0.696 | 1.07 | 0.912 | 1.08 | 0.875 | 0.589 | 0.593 | 0.606 | 0.657 | 0.508 | 0.358 | 0.323 | 0.529 | 
HCC-827 | 0.89 | 0.923 | 0.927 | 0.94 | 0.184 | 1.1 | 1.01 | 1.07 | 0.978 | 0.903 | 0.857 | 0.752 | 0.841 | 0.355 | 0.589 | 0.673 | 0.212 | 0.657
LOU-NH91 | 0.697 | 0.557 | 0.666 | 0.738 | 0.526 | 0.452 | 0.475 | 0.469 | 0.526 | 0.876 | 0.937 | 0.897 | 0.887 | 0.346 | 0.267 | 0.294 | 0.309 | 0.333
NCI-H1651 | 0.952 | 0.871 | 0.819 | 0.818 | 0.88 | 0.905 | 0.929 | 0.88 | 0.968 | 0.544 | 0.531 | 0.489 | 0.588 | 1.05 | 0.93 | 0.876 | 0.921 | 0.847
PC-3 [JPC-3] | 0.988 | 0.907 | 0.975 | 0.987 | 0.6 | 0.83 | 0.789 | 0.774 | 0.877 | 0.82 | 0.915 | 1.06 | 0.832 | 0.64 | 0.74 | 0.806 | 0.505 | 0.65
NCI-H596 | 0.974 | 0.955 | 0.903 | 0.803 | 0.747 | 0.895 | 1.09 | 1.56 | 1.04 | 0.619 | 0.603 | 0.643 | 0.741 | 0.894 | 0.77 | 0.959 | 0.805 | 
NCI-H838 | 0.881 | 0.842 | 0.979 | 0.873 | 0.793 | 0.732 | 0.717 | 0.644 | 0.711 | 0.68 | 0.72 | 0.782 | 0.745 |  | 0.266 | 0.326 | 0.325 | 0.288
NCI-H647 | 1.03 | 1.07 | 1.13 | 1.06 | 0.993 | 0.771 | 0.924 | 0.765 | 0.924 | 0.28 | 0.67 | 0.706 | 0.514 | 0.14 | 0.239 | 0.181 | 0.196 | 
